Data published in PubChem BioAssay (NCI).
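96-well plates; 48 h exposure; 5 concentrations. Endpoints by linear interpolation between flanking doses. Not reached: highest tested concentration assigned. GI50 marks 50% less growth. The concentration for full growth arrest is given as TGI.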

Legend:
Experiment in all cases: NCI tumour cell line growth inhibition, 48 h
T-47D breast = test system: T-47D breast
HCT-15 colon = test system: HCT-15 colon
HT29 colon = test system: HT29 colon
SF-268 CNS = test system: SF-268 CNS
SK-MEL-2 melanoma = test system: SK-MEL-2 melanoma
HCT-116 colon = test system: HCT-116 colon
HCC-2998 colon = test system: HCC-2998 colon
A498 renal = test system: A498 renal

| SMILES | GI50 (T-47D breast) | TGI (T-47D breast) | GI50 (HCT-15 colon) | TGI (HCT-15 colon) | GI50 (HT29 colon) | TGI (HT29 colon) | GI50 (SF-268 CNS) [µM] | TGI (SF-268 CNS) [µM] | GI50 (SK-MEL-2 melanoma) | TGI (SK-MEL-2 melanoma) | GI50 (HCT-116 colon) | TGI (HCT-116 colon) | GI50 (HCC-2998 colon) | TGI (HCC-2998 colon) | GI50 (A498 renal) | TGI (A498 renal) |
| --- | --- | --- | --- | --- | --- | --- | --- | --- | --- | --- | --- | --- | --- | --- | --- | --- |
| O=C(CCCCCCCCC(=O)N/N=C\c1ccccc1O)N/N=C\c1ccccc1O | 2.89 µM | > 49.4 µM | 0.298 µM | > 100 µM | 4.62 µM | > 36.6 µM | 0.342 | 9.72 | 0.469 µM | > 36.8 µM | 0.459 µM | 15.2 µM | 2.92 µM | > 100 µM | 3.1 µM | 26.9 µM |
| O=[N+]([O-])O.[Cu+2].[NH-]CC[NH-].[NH-]CC[NH-] | > 10 µM | > 10 µM | > 10 µM | > 10 µM | > 10 µM | > 10 µM | > 10 | > 10 | > 10 µM | > 10 µM | > 10 µM | > 10 µM | > 10 µM | > 10 µM | > 10 µM | > 10 µM |
| CN(C)CCN1C(=O)c2ccccc2N(C)c2ccccc21 | > 100 µM | > 100 µM | > 100 µM | > 100 µM | > 100 µM | > 100 µM | > 100 | > 100 | > 100 µM | > 100 µM | > 100 µM | > 100 µM | > 100 µM | > 100 µM | > 100 µM | > 100 µM |
| O=C1Nc2ccccc2/C1=C/C(=O)c1coc2c1C(=O)c1ccccc1C2=O | 56.9 µM | > 100 µM | > 100 µM | > 100 µM | > 100 µM | > 100 µM | > 100 | > 100 | > 100 µM | > 100 µM | > 100 µM | > 100 µM | > 100 µM | > 100 µM | 45.7 µM | > 100 µM |
| C=C1C(=O)O[C@H]2[C@H]1CC/C(COC(=O)NCc1ccc(Cn3c(=O)sn(CCCl)c3=O)cc1)=C\CC[C@@]1(C)O[C@@H]21 | 1.97 µM | 5.16 µM | 1.85 µM | 3.82 µM | 2.16 µM | 4.77 µM | 3.73 | 14.6 | 10.6 µM | 24.7 µM | 1.62 µM | 3.08 µM | 17.3 µM | 33 µM | 11.5 µM | 23.8 µM |
| Nc1c(C(=O)c2cccc(-c3ccncc3)c2)cnn1-c1ccc(F)cc1F | 3.67 µM | > 25 µM | 2.19 µM | > 25 µM | 2.48 µM | > 25 µM | > 19.7 | > 25 | 6.43 µM | > 19.7 µM | 6.25 µM | > 25 µM | > 21.3 µM | > 25 µM | 4.65 µM | > 25 µM |
| COc1ccc(C(=O)c2cc(OC)c(OC)c(OC)c2)cc1OC(=O)CCl | 3.03 µM | 97.3 µM | < 0.0132 µM | > 100 µM | 1.94 µM | > 100 µM | 0.106 | > 100 | 0.436 µM | > 100 µM | 0.0205 µM | > 100 µM | 0.0393 µM | > 100 µM | 2.07 µM | 7.01 µM |
| CN(O)c1nc(N(C)O)nc(N2CCOCC2)n1 | 8.07 µM | > 100 µM | 0.637 µM | > 100 µM | 4.67 µM | > 100 µM | 5.7 | > 100 | 7.7 µM | > 100 µM | 1.07 µM | > 100 µM | 8.75 µM | > 100 µM | 14.9 µM | > 100 µM |
| CC(C)(C)c1ccc(Oc2nccc(-c3c(-c4ccc(F)cc4)ncn3C3CCNCC3)n2)cc1 | 4.46 µM | 8.56 µM | 3.23 µM | 6.68 µM | 1.03 µM | 4.17 µM | 3.34 | 7.07 | 5.21 µM | 9.1 µM | 3.58 µM | 7.07 µM | 1.38 µM | 4.98 µM | 3.89 µM | 7.49 µM |
| CC(C)[C@H](N)C(=O)N1CCC[C@H]1B(O)O | > 100 µM | > 100 µM | > 100 µM | > 100 µM | > 100 µM | > 100 µM | > 100 | > 100 | > 100 µM | > 100 µM | > 100 µM | > 100 µM | > 100 µM | > 100 µM | > 100 µM | > 100 µM |
| COc1ccc(-c2cc(=O)[nH]c3c(OC)c4ccccc4c(OC)c23)cc1 | 0.356 µM | > 100 µM | 0.419 µM | > 100 µM | 0.342 µM | – | 0.552 | > 100 | 0.486 µM | > 100 µM | 0.38 µM | > 100 µM | 1.28 µM | > 23.1 µM | 0.145 µM | – |
| COc1ccc2nc3cccc([N+](=O)[O-])c3c(NCCCCCC(=O)O)c2c1 | 0.856 µM | 12 µM | 0.0251 µM | – | 0.014 µM | 0.392 µM | 0.0755 | 0.701 | 0.0342 µM | 0.117 µM | 0.0107 µM | 3.51 µM | 1.18 µM | 2.5 µM | 1.87 µM | 4.28 µM |
| COc1ccc(C2=CC(c3ccc4c(c3)OCO4)c3c(c4ccccc4oc3=O)O2)cc1OC (configuration not stated) | – | > 100 µM | – | > 31.6 µM | – | > 100 µM | – | > 100 | – | > 100 µM | – | > 100 µM | – | > 27.2 µM | – | > 100 µM |
| Cc1c(C(N)=O)sc2c1C(=O)N(Cc1ccccc1)C1=NN=C(c3ccc(Cl)cc3)CN12 | 3.82 µM | 16.4 µM | 0.688 µM | 17.9 µM | 4.8 µM | 16.1 µM | 2.63 | 14.1 | 6.1 µM | 18.6 µM | 3.44 µM | 14.5 µM | 3.97 µM | 17 µM | 2.88 µM | 12.7 µM |
| CCC(C)(CC(C)(C)C(=O)NCC(=O)NC(Cc1ccccc1)C(=O)NC(Cc1ccccc1)C(=O)NCC(=O)NC1CC(OC2CC(O)(C(=O)CO)Cc3c(O)c4c(c(O)c32)C(=O)c2c(OC)cccc2C4=O)OC(C)C1O)C(=O)NCC(C)O (configuration not stated) | 70.3 µg/mL | > 150 µg/mL | 1.5 µg/mL | 1.5 µg/mL | 91.9 µg/mL | > 150 µg/mL | – | – | 127 µg/mL | > 150 µg/mL | 55.3 µg/mL | > 150 µg/mL | 116 µg/mL | > 150 µg/mL | > 150 µg/mL | > 150 µg/mL |
